According to ChEMBL document CHEMBL5584224, “Recent advances in c-Met-based dual inhibitors in the treatment of cancers” (Eur J Med Chem, 2024):
Each block holds one compound with its values, some of them ahead of it.

Key:
HCC827 = assay: Antiproliferative activity against human HCC827 cells; assay type: functional, cell-based
[1] = target: T1, Tyrosine-protein kinase receptor UFO (Homo sapiens, UniProt P30530); assay: Inhibition of AXL (unknown origin)
T1 sequence (P30530 whole entry): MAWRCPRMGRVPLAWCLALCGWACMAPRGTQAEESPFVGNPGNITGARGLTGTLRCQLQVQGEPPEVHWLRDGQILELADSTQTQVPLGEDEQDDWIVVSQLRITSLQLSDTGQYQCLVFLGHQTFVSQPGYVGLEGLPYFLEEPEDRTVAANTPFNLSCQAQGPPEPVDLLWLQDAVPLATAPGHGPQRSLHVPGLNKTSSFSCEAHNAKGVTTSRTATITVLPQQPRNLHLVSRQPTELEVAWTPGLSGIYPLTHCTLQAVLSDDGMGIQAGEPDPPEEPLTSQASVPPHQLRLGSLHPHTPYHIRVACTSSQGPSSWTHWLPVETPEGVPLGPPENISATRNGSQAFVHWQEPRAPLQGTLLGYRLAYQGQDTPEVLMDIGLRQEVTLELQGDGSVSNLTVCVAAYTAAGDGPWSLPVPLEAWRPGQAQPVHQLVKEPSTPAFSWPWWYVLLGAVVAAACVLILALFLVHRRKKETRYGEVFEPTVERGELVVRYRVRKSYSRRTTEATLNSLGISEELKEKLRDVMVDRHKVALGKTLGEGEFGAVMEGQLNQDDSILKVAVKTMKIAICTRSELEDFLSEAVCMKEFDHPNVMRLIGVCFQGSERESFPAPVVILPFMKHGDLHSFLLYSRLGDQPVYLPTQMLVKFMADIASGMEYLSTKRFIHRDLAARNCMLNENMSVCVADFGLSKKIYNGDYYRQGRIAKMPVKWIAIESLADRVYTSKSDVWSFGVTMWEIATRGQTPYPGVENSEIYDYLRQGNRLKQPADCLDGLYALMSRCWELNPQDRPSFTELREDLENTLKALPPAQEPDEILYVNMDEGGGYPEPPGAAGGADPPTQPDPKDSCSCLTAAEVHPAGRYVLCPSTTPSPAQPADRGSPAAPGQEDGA

[2] = target: T2, Hepatocyte growth factor receptor (Homo sapiens, UniProt P08581)
T2 sequence (P08581 whole entry): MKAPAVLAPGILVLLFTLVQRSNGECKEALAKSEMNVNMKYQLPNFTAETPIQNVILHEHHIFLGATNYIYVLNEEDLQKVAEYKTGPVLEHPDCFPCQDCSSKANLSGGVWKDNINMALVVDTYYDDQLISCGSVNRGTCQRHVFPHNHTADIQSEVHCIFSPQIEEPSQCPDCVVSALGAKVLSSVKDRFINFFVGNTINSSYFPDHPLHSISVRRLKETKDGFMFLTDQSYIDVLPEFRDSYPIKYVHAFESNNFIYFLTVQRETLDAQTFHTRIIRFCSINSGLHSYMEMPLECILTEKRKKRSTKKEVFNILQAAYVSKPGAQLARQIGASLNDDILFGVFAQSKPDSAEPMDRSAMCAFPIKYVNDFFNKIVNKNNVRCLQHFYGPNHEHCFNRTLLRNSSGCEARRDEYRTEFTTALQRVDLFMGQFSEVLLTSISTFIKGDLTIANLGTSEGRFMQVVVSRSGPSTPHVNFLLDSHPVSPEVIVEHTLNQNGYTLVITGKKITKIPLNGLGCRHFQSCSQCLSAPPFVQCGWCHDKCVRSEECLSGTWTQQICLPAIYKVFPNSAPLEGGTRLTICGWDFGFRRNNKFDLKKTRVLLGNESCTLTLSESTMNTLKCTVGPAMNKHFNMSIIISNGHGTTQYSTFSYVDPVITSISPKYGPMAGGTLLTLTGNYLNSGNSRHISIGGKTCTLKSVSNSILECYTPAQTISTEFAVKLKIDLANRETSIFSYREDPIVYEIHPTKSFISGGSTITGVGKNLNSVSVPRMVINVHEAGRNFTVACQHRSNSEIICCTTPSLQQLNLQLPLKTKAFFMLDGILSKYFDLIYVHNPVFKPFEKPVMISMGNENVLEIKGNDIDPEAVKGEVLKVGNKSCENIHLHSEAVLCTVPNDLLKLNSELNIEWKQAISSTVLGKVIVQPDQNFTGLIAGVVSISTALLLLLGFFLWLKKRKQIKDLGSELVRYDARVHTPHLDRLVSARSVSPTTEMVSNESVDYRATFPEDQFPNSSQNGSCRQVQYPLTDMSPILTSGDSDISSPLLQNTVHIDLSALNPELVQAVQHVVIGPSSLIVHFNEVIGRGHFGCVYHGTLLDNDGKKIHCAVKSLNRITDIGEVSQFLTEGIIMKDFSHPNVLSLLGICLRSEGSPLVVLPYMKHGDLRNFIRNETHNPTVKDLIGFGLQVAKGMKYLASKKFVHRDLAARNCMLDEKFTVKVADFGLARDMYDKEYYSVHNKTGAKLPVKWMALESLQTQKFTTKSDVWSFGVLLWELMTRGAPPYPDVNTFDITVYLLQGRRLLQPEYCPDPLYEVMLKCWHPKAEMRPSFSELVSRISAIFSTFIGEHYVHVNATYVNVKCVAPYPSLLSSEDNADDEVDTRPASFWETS
Description: Inhibition of c-MET (unknown origin)

[3] = target: T3, ALK tyrosine kinase receptor (Homo sapiens, UniProt Q9UM73); assay: Inhibition of ALK (unknown origin)
T3 sequence (Q9UM73 whole entry): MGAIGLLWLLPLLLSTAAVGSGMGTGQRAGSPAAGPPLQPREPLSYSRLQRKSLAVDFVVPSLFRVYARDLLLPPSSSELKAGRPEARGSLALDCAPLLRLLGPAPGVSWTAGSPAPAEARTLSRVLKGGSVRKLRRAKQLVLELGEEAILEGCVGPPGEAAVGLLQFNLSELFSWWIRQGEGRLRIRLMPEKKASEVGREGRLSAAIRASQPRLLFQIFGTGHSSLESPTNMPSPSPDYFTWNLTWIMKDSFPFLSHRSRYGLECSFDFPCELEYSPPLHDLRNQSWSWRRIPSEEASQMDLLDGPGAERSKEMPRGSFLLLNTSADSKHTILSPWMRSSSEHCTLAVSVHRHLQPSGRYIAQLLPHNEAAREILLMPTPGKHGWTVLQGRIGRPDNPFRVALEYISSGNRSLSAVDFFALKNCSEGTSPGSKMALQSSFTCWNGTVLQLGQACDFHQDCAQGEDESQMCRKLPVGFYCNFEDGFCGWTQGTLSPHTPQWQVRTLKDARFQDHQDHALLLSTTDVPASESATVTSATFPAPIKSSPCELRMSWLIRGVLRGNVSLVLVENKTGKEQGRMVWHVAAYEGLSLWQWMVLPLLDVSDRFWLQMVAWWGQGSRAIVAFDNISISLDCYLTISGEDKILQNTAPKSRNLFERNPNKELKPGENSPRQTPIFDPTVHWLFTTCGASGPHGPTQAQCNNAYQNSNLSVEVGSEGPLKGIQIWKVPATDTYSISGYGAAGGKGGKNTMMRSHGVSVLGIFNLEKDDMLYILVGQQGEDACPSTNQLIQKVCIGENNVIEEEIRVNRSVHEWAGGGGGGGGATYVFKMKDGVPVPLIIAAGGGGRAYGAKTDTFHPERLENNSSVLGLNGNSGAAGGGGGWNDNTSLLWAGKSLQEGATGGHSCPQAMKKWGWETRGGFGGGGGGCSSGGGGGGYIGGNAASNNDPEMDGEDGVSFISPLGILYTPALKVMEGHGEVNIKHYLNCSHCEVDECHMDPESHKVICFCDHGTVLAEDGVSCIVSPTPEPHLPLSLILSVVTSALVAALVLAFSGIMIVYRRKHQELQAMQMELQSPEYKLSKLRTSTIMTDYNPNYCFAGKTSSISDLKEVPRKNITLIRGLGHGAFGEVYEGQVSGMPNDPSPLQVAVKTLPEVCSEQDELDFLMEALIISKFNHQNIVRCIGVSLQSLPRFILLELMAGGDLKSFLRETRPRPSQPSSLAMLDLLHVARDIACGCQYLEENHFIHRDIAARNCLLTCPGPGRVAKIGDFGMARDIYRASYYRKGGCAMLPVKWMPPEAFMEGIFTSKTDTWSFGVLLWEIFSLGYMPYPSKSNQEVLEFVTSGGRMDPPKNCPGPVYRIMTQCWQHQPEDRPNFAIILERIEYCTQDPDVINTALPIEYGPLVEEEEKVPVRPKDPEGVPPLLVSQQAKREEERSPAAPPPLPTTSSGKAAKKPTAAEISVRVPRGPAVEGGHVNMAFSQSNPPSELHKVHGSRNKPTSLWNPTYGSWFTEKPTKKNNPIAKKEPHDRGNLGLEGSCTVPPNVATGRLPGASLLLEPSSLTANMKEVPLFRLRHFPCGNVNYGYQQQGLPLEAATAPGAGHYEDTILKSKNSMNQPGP

A-431 = assay: Antiproliferative activity against human A-431 cells assessed as reduction in cell viability incubated for 24 hrs by MTT assay; assay type: functional, cell-based; conditions: A-431, 24 h
NCI-H1975 = assay: Antiproliferative activity against human NCI-H1975 cells assessed as reduction in cell viability incubated for 48 hrs by MTT assay; assay type: functional, cell-based; conditions: NCI-H1975, 48 h
Histone deacetylase 1 = Histone deacetylase 1 (Homo sapiens, UniProt Q13547); assay: Inhibition of HDAC1 (unknown origin) expressed in Sf9 cells using Z-Lys(Ac)-AMC as fluorogenic substrate preincubated for 60 mins followed by substrate addition and measured after 1 hr by fluorescence based microplate analysis
Sequence of Histone deacetylase 1 (Q13547 whole entry): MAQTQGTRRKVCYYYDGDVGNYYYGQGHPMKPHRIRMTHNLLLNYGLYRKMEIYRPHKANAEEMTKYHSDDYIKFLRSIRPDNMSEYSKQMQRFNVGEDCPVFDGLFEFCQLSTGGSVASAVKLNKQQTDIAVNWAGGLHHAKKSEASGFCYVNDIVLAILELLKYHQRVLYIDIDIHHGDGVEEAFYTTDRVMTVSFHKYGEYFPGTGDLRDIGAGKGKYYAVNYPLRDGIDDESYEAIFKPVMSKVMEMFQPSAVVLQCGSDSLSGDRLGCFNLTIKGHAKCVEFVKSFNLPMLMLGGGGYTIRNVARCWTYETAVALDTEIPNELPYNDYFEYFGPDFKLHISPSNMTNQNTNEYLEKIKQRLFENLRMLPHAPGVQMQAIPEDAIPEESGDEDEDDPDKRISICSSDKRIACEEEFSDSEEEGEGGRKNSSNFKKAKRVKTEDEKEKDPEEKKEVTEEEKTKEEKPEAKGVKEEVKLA

[4] = target: T2, Hepatocyte growth factor receptor; assay: Inhibition of c-Met (unknown origin) by mobility shift assay
A549 = assay: Antiproliferative activity against human A549 cells assessed as reduction in cell viability incubated for 24 hrs by MTT assay; assay type: functional, cell-based; conditions: A549, 24 h
NCI-H322M = assay: Antiproliferative activity against human NCI-H322M cells assessed as cell growth inhibition incubated for 72 hrs by MTT assay; assay type: functional, cell-based
KB 3-1 = assay: Antiproliferative activity against human KB-3-1 cells assessed as cell growth inhibition; assay type: functional, cell-based
MDA-MB-231 = assay: Antiproliferative activity against human MDA-MB-231 cells assessed as reduction in cell viability by MTT assay; assay type: functional, cell-based
BT-549 = assay: Antiproliferative activity against human BT-549 cells assessed as reduction in cell viability by MTT assay; assay type: functional, cell-based
4T1 = assay: Antiproliferative activity against mouse 4T1 cells assessed as reduction in cell viability by MTT assay; assay type: functional, cell-based
[5] = target: T3, ALK tyrosine kinase receptor
Description: Inhibition of ALK (unknown origin) by TR-FRET assay

IC50 (HCC827): < 100 nM
SMILES: COCCN1CCN(C(=O)C#Cc2c(Oc3ccc(NC(=O)c4cn(C(C)C)c(=O)n(-c5ccc(F)cc5)c4=O)cc3F)ccnc2N)CC1

IC50 [1]: 7 nM
SMILES: CC(C)n1cc(C(=O)Nc2ccc(Oc3ccnc4c3Oc3ccccc3N4)c(F)c2)c(=O)c(-c2ccc(F)cc2)c1

IC50 (HCC827): < 100 nM
IC50 [2]: 10 nM
SMILES: Nc1nccc(Oc2ccc(NC(=O)c3ccnn(-c4ccc(F)cc4)c3=O)cc2F)c1C#CCC1CCNCC1

IC50 [3]: 20.3 nM
IC50 (A-431): 749 nM
IC50 (NCI-H1975): 84.3 nM
SMILES: CN1CCc2ccc(COCC3Cc4cn5ncnc(-c6cnn(C7CCNCC7)c6)c5c4C3)cc21 (configuration not stated)

IC50 (HCC827): < 100 nM
SMILES: Cc1nc(Cn2cc(C(=O)Nc3ccc(Oc4ccnc(N)c4C#CCC4CCN(C)CC4)c(F)c3)c(=O)n(-c3ccc(F)cc3)c2=O)cs1

IC50 (Histone deacetylase 1): 38 nM
IC50 [4]: 0.71 nM
SMILES: Nc1ccccc1NC(=O)c1ccc(OCCCOc2ccc3c(OCCn4nc(-c5cn[nH]c5)ccc4=O)ccnc3c2)cn1

IC50 (HCC827): < 100 nM
SMILES: COCCN1CCN(C(=O)C#Cc2c(Oc3ccc(NC(=O)c4ccnn(-c5ccc(F)cc5)c4=O)cc3F)ccnc2N)CC1

IC50 (HCC827): < 100 nM
SMILES: CC(C)n1cc(C(=O)Nc2ccc(Oc3ccnc(N)c3C#CC(=O)N3CCNCC3)c(F)c2)c(=O)n(-c2ccc(F)cc2)c1=O

IC50 [1]: > 1000 nM
SMILES: COc1cc2nccc(Oc3ccc(Nc4nccc5ccn(-c6ccc(Br)cc6)c(=O)c45)cc3F)c2cc1OC

IC50 [1]: 17.2 nM
SMILES: COc1cc2nccc(Oc3ccc(Nc4nccc5ccn(-c6ccc(C)cc6)c(=O)c45)cc3F)c2cc1OC

IC50 (A-431): > 1000 nM
IC50 (NCI-H1975): 60 nM
SMILES: c1ccc2oc(COCC3Cc4cn5ncnc(-c6cnn(C7CCNCC7)c6)c5c4C3)cc2c1 (configuration not stated)

IC50 [2]: 8.32 nM
SMILES: N#CC1=C(N)OC2=C(c3sc(N)c(C#N)c3CC2)C1c1ccccc1 (configuration not stated)

IC50 [3]: 0.24 nM
IC50 (A-431): 100 nM
IC50 (NCI-H1975): 6.21 nM
SMILES: Fc1ccc(Cl)c(COCC2Cc3cn4ncnc(-c5cnn(C6CCNCC6)c5)c4c3C2)c1Cl (configuration not stated)

IC50 (HCC827): < 100 nM
SMILES: COCCN1CCN(C(C)(C)C#Cc2c(Oc3ccc(NC(=O)c4cn(C(C)C)c(=O)n(-c5ccc(F)cc5)c4=O)cc3F)ccnc2N)CC1

IC50 (A549): 10 µM
IC50 (NCI-H322M): 26.3 µM
SMILES: C/C=C(/C=O)[C@@H](CC=O)CC(=O)OCCc1ccc(O)cc1 [(-)-OLEOCANTHAL]

SMILES: COc1cc2c(c(OC)c1OC)-c1ccc(OC)c(=O)cc1[C@@H](NC(C)=O)CC2 [COLCHICINE]
IC50 (KB 3-1): 1900 nM

IC50 (MDA-MB-231): 23.9 µM
IC50 (BT-549): 24.8 µM
IC50 (4T1): 7.73 µM
SMILES: COc1cc2nc(N3CCN(C(=O)C4COc5ccccc5O4)CC3)nc(N)c2cc1OC (configuration not stated) [DOXAZOSIN]

IC50 (KB 3-1): 6 nM
SMILES: COc1cccc2c1C(=O)c1c(O)c3c(c(O)c1C2=O)C[C@@](O)(C(=O)CO)C[C@@H]3O[C@H]1C[C@H](N)[C@H](O)[C@H](C)O1 [DOXORUBICIN]

IC50 [5]: 14.3 nM
SMILES: COc1cc(N2CCNC[C@@H]2C)ncc1-c1cnc(N)c(O[C@H](C)c2c(Cl)ccc(F)c2Cl)c1 [ENVONALKIB]

IC50 (KB 3-1): 4 nM
SMILES: COCCNCc1ccc(-c2cc3nccc(Oc4ccc(NC(=S)NC(=O)Cc5ccc(F)cc5)cc4F)c3s2)nc1 [GLESATINIB]

IC50 [2]: 33.4 nM
SMILES: Cc1c(C(=O)Nc2ccc(Oc3ccnc4cc(OCC(C)(C)O)ccc34)c(F)c2)c(=O)n(-c2ccccc2)n1C [NINGETINIB]

IC50 (KB 3-1): 29 nM
SMILES: CC(=O)O[C@H]1C(=O)[C@@]2(C)[C@H]([C@H](OC(=O)c3ccccc3)[C@]3(O)C[C@H](OC(=O)[C@H](O)[C@@H](NC(=O)c4ccccc4)c4ccccc4)C(C)=C1C3(C)C)[C@]1(OC(C)=O)CO[C@@H]1C[C@@H]2O [PACLITAXEL]
